The test system of one series is P. falciparum. The arrangement: method as in Shahinas et al. [2013]. The conditions noted are these: in vitro against P. falciparum; ref Shahinas et al. [2013]; cited from earlier work.
Another series relates to Galleria mellonella. Briefly: In vivo toxicity in Galleria mellonella larvae. As to conditions: class from LD50 in larvae. More on the design: G. mellonella Toxicity class: scale not given here. The protocol:
(§1) In vivo toxicity was performed using the invertebrate Galleria mellonella model. Healthy, beige larvae weighing 200–250 mg were obtained from the Entomology laboratory at the University and selected for toxicity assays. Groups of ten six-instar larvae were inoculated with 10 μL or 20 μL of each compound at concentrations equivalent to 3000 mg/kg and incubated at 37 °C in darkness. […] The larvae were initially injected with 1000 mg/kg, and if most larvae (> 60%) survived after 5 days, the assay was performed using higher doses up to 3000 mg/kg (Piatek et al. [2021]).

A short description of series [1]: In vivo toxicity in Galleria mellonella larvae. The arrangement: G. mellonella Toxicity class: scale not given here. The conditions noted are these: Galleria mellonella, in vivo, other: injection; larvae, injection, survival monitored 5 days; read-out: G. mellonella LD50. On the procedure: as §1
Another series has as its system human RBCs. Briefly: Hemolytic activity test. In kind it is cell-based. The conditions noted are these: human RBCs 2% hematocrit, 72 h, 37 °C, tested at 200, 100, 50, 25 μM. The protocol: The ability to induce membrane damage was assessed by testing the hemolytic activity of those compounds showing inhibition of parasite growth. The assay was adapted from Sousa et al. ([2021]) with modifications. Briefly, 180 μL of human RBCs adjusted to 2% hematocrit in phosphate buffered saline (PBS) were placed into a 96-well microplate and subsequently exposed to 200 μM of each selected compound. As a positive control, 20 μL of 1% sodium dodecyl sulfate (SDS) was added, and a non-drug well was included as a negative control. Free hemoglobin was measured after 72 h of incubation at 37 °C by spectrophotometry at 540 nm (Cytation 3 M, Biotek). Nonspecific absorbance was corrected by subtracting the blank (PBS). Determinations were done by triplicate in at least two independent experiments. Compounds with hemolytic activity at 200 μM were further tested at 100 μM, 50 μM, and 25 μM dilutions.

The subject of another series is P. falciparum 3D7. In words: Growth inhibition of P. falciparum 3D7 cultures, SYBR Green assay. The conditions noted are these: P. falciparum 3D7, 72 h, triplicate. Type of series: cell-based, Plasmodium falciparum. The protocol:
Antimalarial activity of the selected compounds was assessed by growth inhibition assays. P. falciparum 3D7 parasites (a chloroquine-sensitive strain) kindly supplied by the Biodefense and Emerging Infections Research Resources Repository (BEI resources, NIAID, NIH, USA) were cultured by the Trager-Jensen method (Trager and Jensen [1976]; Moll et al. [2013]) with modifications. Briefly, parasite-infected red blood cells (RBCs) were kept in continuous culture in complete culture medium (CCM) containing RPMI 1640 (GIBCO), 25 mM hydroxypipazine-N’-2-ethane sulfonic acid (HEPES, Sigma), and 25 μg/mL gentamicin. […] [2013]). Parasite growth was monitored by preparing Giemsa-stained smears. The parasitemia was determined by examination of at least 10 high power magnification fields (hpf) (Moll et al. [2013]), and levels of parasitemia were kept between 5 and 10%. Artemisinin (Sigma) and chloroquine diphosphate salt (Sigma) were used as control drugs. […] Susceptibility assays were performed by the SYBR Green method with modifications (Kato et al. [2018]). Briefly, P. falciparum-infected RBCs cultured under standard conditions were plated at about 2% parasitemia (2% hematocrit), in 96-well microplates, and 10 μM of each compound was added; the final DMSO concentration was less than 0.1%. Parasites were initially incubated for 72 h before addition of lysis buffer (20mM Tris-HCl, 5mM EDTA, 0.008% saponin, 0.08% Triton X-100) supplemented with 0.04% SYBR™ Green I Nucleic Acid (10,000 × in DMSO, Invitrogen), then the microplates were returned to culture for 4 h at room temperature and read in a microplate fluorimeter (Cytation 3 M, Biotek) at excitation 485 nm–emission 530 nm. A control drug for total growth inhibition, a non-drug well and uninfected RBCs were included as positive and negative controls, respectively. The percentage (%) of inhibition was calculated as follows: 1-(fluorescence of treated/nontreated cultures) × 100. […] To do this, parasite cultures were exposed to serial two-fold dilutions of the test compounds ranging from 10 to 0.078 μM. Controls of uninfected RBCs and CQ-treated infected RBCs were included, and the assays were performed in triplicate.

Setting [2] is: Plasmodium falciparum, 3D7, 72 h.

Consider 16 compounds from article PMC10754745, “In silico prediction and in vitro assessment of novel heterocyclics with antimalarial activity” (Parasitology Research, 2023).

As usually defined, the IC50 is the midpoint of a concentration-inhibition curve. Broadly, the LD50 is the dose at which mortality reaches 50%.

Consider `CC(C)NCCCn1c(Sc2cc3c(cc2I)OCO3)nc2c(N)ncnc21` [PU-H71], for which the 50% inhibitory concentration (IC50) with P. falciparum was 0.11 µM.
Turning to `O=C(/C=C/c1cccc(Nc2ccnc3cc(Cl)ccc23)c1)c1ccc2c(c1)OCO2` [UV7, Quinolinyl-amino chalcone], the “G. mellonella Toxicity class” value in the series on Galleria mellonella is 5. Besides, in series [1], the LD50 at 5 days is 2000 mg/kg. This compound also displayed a Hemolytic activity with human RBCs of over 200 µM. Besides, the half-inhibitory concentration (IC50) was about 1 µM with P. falciparum 3D7, 1.07 ± 0.2 µM with P. falciparum 3D7 (listed as 7) and over 1 µM with P. falciparum 3D7 (setting [2]).
With `CC(=O)N1N=C(c2cccc(Nc3ccncc3)c2)CC1c1ccc(Cl)cc1` (stereo not drawn) [UV285], the 50% inhibitory concentration (IC50) with P. falciparum 3D7 (setting [2]) lay in the range of 1.58 to 2.75 µM.
`CC(=O)N1N=C(c2cccc(Nc3ccncc3)c2)CC1c1ccc(Br)cc1` (stereo not drawn) [UV286]: the “G. mellonella Toxicity class” value in the series on Galleria mellonella amounted to 4. In series [1], the LD50 at 5 days came to 1500 mg/kg. Also, the Hemolytic activity in the series with human RBCs was over 200 µM. Besides, the IC50 in the series on P. falciparum 3D7 was under 1 µM; with P. falciparum 3D7 (listed as 286), 0.444 ± 0.1 µM.
As for `COc1ccc(C2CC(c3cccc(Nc4ccncc4)c3)=NN2C(C)=O)cc1` (stereo not drawn) [UV287], the IC50 with P. falciparum 3D7 (setting [2]) was in the range of 1.58 to 2.75 µM.
In the series on P. falciparum 3D7 (setting [2]), `CC(=O)N1N=C(c2cccc(Nc3ccncc3)c2)CC1c1ccc(F)cc1` (stereo not drawn) [UV288] returned a 50% inhibitory concentration (IC50) of 1.58 to 2.75 µM.
Same read-out and setting: next, `CC(=O)N1N=C(c2cccc(Nc3ccncc3)c2)CC1c1ccc2c(c1)OCO2` (stereo not drawn) [UV290]: 1.58 to 2.75 µM.
On the same count and under the same terms, then `CC(=O)N1N=C(c2cccc(Nc3ccncc3)c2)CC1c1ccc(C)cc1` (stereo not drawn) [UV291], with 1.58 to 2.75 µM.
Turning to `CC(=O)N1N=C(c2cccc(Nc3ccncc3)c2)CC1c1ccccc1` (stereo not drawn) [UV292], the “G. mellonella Toxicity class” value in the series with Galleria mellonella came to 5. For the same compound, in series [1], the LD50 at 5 days came out at 3000 mg/kg. In the series with human RBCs, this compound came in with a Hemolytic activity of over 100 µM. Moreover, the IC50 is 0.66 ± 0.2 µM in the series with P. falciparum 3D7 and under 1 µM in the series with P. falciparum 3D7 (setting [2]).
For the compound `COc1ccc(C2CC(c3cccc(Nc4ccncc4)c3)=NN2c2ccccc2)cc1` (stereo not drawn) [UV296], the “G. mellonella Toxicity class” value with Galleria mellonella turned out to be 5. For the same compound, the 50% lethal dose (LD50) at 5 days in series [1] is 2000 mg/kg. In addition, the values for the Hemolytic activity result in the series on human RBCs and in the series on human RBCs (listed as 296) were “induced RBC hemolysis at lower concentrations” and over 25 µM, respectively. Besides, the figures for the half-maximal inhibitory concentration (IC50) in the series on P. falciparum 3D7 and with P. falciparum 3D7 (setting [2]) were 0.629 ± 0.1 µM and under 1 µM, respectively.
In the case of `COc1cc(C2CC(c3cccc(Nc4ccncc4)c3)=NN2c2ccccc2)cc(OC)c1OC` (stereo not drawn) [UV297], the “G. mellonella Toxicity class” value with Galleria mellonella stood at 5. Further, the LD50 at 5 days in series [1] is 2000 mg/kg. Also, the Hemolytic activity in the series with human RBCs was over 200 µM. The IC50 with P. falciparum 3D7 was 0.991 ± 0.28 µM; in the series with P. falciparum 3D7 (setting [2]) it was under 1 µM.
The like results for `Clc1ccc(N2N=C(c3cccc(Nc4ccncc4)c3)CC2c2ccc3c(c2)OCO3)cc1` (stereo not drawn) [UV306, 4-(pyridyl-aminophenyl)-methyledioxyphenyl-N-(4-chlorophenyl)pyrazoline] were, in that order, 5, 2000 mg/kg, 25 µM, 0.71 ± 0.1 µM and under 1 µM.
On to `Nc1ncnc2c1N=C(c1cccc(Nc3ccncc3)c1)CC(c1ccccc1)N2` (stereo not drawn) [UV712, Pyridyl-amino-pyrimido-diazepine], for which the “G. mellonella Toxicity class” value in the series on Galleria mellonella is 4. Moreover, the LD50 at 5 days in series [1] stood at 1000 mg/kg. In the series with human RBCs, this compound returned a Hemolytic activity of over 200 µM. Besides, the 50% inhibitory concentration (IC50) in the series on P. falciparum 3D7 was about 1 µM; in the series with P. falciparum 3D7 (listed as 712) it was 1.08 ± 0.2 µM; with P. falciparum 3D7 (setting [2]) it was over 1 µM.
Consider `Nc1nc(N)c2c(n1)NC(c1ccc(Cl)cc1)CC(c1cccc(Nc3ccncc3)c1)=N2` (stereo not drawn) [UV797, Pyridyl-amino-pyrimido-diazepine], for which the “G. mellonella Toxicity class” value in the series on Galleria mellonella was 5. In series [1], the LD50 at 5 days amounted to 2000 mg/kg. This compound also had a Hemolytic activity in the series on human RBCs of over 200 µM. Further, in the series with P. falciparum 3D7, the concentration for half-maximal inhibition (IC50) is 0.353 ± 0.019 µM.
In the case of `Cc1ccc(C2CC(c3cccc(Nc4ccncc4)c3)=Nc3c(N)nc(N)nc3N2)cc1` (stereo not drawn) [UV801, Pyridyl-amino- pyrimido- diazepine], the “G. mellonella Toxicity class” value in the series on Galleria mellonella was 5. In series [1], the LD50 at 5 days turned out to be 2000 mg/kg. Moreover, the Hemolytic activity with human RBCs was over 200 µM. Moreover, the figures for the IC50 in the series with P. falciparum 3D7 and in the series with P. falciparum 3D7 (setting [2]) were 0.537 ± 0.03 µM and under 1 µM, respectively.
On to `Nc1nc(N)c2c(n1)NC(c1ccccc1)CC(c1cccc(Nc3ccncc3)c1)=N2` (stereo not drawn) [UV802, Pyridyl-amino-pyrimido-diazepina], for which, in the series on Galleria mellonella, the “G. mellonella Toxicity class” value amounted to 5. Also, the LD50 at 5 days in series [1] is 2000 mg/kg. This compound yielded a Hemolytic activity in the series on human RBCs of over 200 µM. This compound also showed a concentration for half-maximal inhibition (IC50) in the series on P. falciparum 3D7 of 0.178 ± 0.04 µM.
